This passage reports MIC50, MIC90 and responders results from patent US20170107179A1 (Tetraphase Pharmaceuticals, Inc., priority 2010, published 2017).

In brackets after ≈: the same amount, converted by molar mass. Like-named read-outs stand apart in the source and are kept apart here. Bounds are passed on as bounds.

Test [1] deals with Gram-positive pathogens. Put plainly: Broth microdilution MIC, respiratory/skin pathogens (Table 12). The settings on record: E. faecalis, VAN S (n = 53). On the technique in general: Broth dilution looks for growth in wells or tubes with falling amounts of substance.
For test [2], the system named is S. aureus Smith. The test is described as follows: Mouse systemic infection (septicemia) model, CD-1 mice. To be noted: Staphylococcus aureus, in Mus musculus, 48 h; for responders at 3 mg/kg: iv, read-out: Percent survival at 48 hours, IV (3 mg/kg); for responders at 30 mg/kg: po, read-out: Percent survival at 48 hours, PO (30 mg/kg).
The test system of test [3] is Gram-negative and Gram-positive organisms (clinical isolates). The test is described as follows: Broth microdilution MIC against clinical isolates (CLSI M7-A8), Table 9. Type of test: cell-based.
For test [4], the system named is Legionella pneumophila, 70 isolates, serogroups 1-6. The test is described as follows: microbe, parasite or virus in culture. It is filed as cell-based.

In test [1], `CCC[C@@H]1C[C@@H](C(=O)N[C@@H]([C@H]2O[C@H](SC)[C@H](O)[C@@H](O)[C@H]2O)[C@H](C)Cl)N(C)C1` [Clindarnycin] displayed an MIC50 of more than 2 µg/mL and an MIC90 of more than 2 µg/mL.
In the case of `CC(C)N1Cc2c(O)c3c(c(C(F)(F)F)c2C1)C[C@H]1C[C@H]2[C@H](N(C)C)C(O)=C(C(N)=O)C(=O)[C@@]2(O)C(O)=C1C3=O` [Compound 126], in test [2], the responders at 3 mg/kg was found to be 83% and the responders at 30 mg/kg worked out at 100%.
For `CC[C@@H](C)N1Cc2c(O)c3c(c(C(F)(F)F)c2C1)C[C@H]1C[C@H]2[C@H](N(C)C)C(O)=C(C(N)=O)C(=O)[C@@]2(O)C(O)=C1C3=O` [Compound 128], in that order: 17% and 0%.
The like results for `CCC(C)(C)N1Cc2c(O)c3c(c(F)c2C1)C[C@H]1C[C@H]2[C@H](N(C)C)C(O)=C(C(N)=O)C(=O)[C@@]2(O)C(O)=C1C3=O` [Compound 129] were, in that order, 50% and 0%.
`CC[C@@H](C)N1Cc2c(O)c3c(c(F)c2C1)C[C@H]1C[C@H]2[C@H](N(C)C)C(O)=C(C(N)=O)C(=O)[C@@]2(O)C(O)=C1C3=O` [Compound 130]: in test [2], the responders at 3 mg/kg came out at 33% and the responders at 30 mg/kg was 83%.
As for `CN(C)CC(=O)N1Cc2c(O)c3c(c(F)c2C1)C[C@H]1C[C@H]2[C@H](N(C)C)C(O)=C(C(N)=O)C(=O)[C@@]2(O)C(O)=C1C3=O` [Compound 131], in test [2], the responders at 3 mg/kg is 100% and the responders at 30 mg/kg turned out to be 17%.
As for `CN(C)[C@@H]1C(O)=C(C(N)=O)C(=O)[C@@]2(O)C(O)=C3C(=O)c4c(O)c5c(c(F)c4C[C@H]3C[C@@H]12)CN(C1CCC1)C5` [Compound 132], in test [2], the responders at 3 mg/kg turned out to be 50% and the responders at 30 mg/kg is 50%.
As to `CC(C)N1Cc2c(O)c3c(c(N(C)C)c2C1)C[C@H]1C[C@H]2[C@H](N(C)C)C(O)=C(C(N)=O)C(=O)[C@@]2(O)C(O)=C1C3=O` [Compound 135], in test [2], the responders at 3 mg/kg stood at 100% and the responders at 30 mg/kg is 100%.
Turning to `CC(C)[C@H](C)N1Cc2c(O)c3c(c(F)c2C1)C[C@H]1C[C@H]2[C@H](N(C)C)C(O)=C(C(N)=O)C(=O)[C@@]2(O)C(O)=C1C3=O` [Compound 137], in test [2], the responders at 3 mg/kg was determined as 33% and the responders at 30 mg/kg is 33%.
Consider `CC(C)N1Cc2c(O)c3c(c(F)c2C1)C[C@H]1C[C@H]2[C@H](N(C)C)C(O)=C(C(N)=O)C(=O)[C@@]2(O)C(O)=C1C3=O` [Compound 143], for which, in test [2], the responders at 3 mg/kg stood at 83% and the responders at 30 mg/kg is 100%.
The like results for `CN(C)[C@@H]1C(O)=C(C(N)=O)C(=O)[C@@]2(O)C(O)=C3C(=O)c4c(O)c5c(c(Cl)c4C[C@H]3C[C@@H]12)CN(C(C)(C)C)C5` [Compound 144] were, in that order, 50% and 0%.
In the case of `CN(C)[C@@H]1C(O)=C(C(N)=O)C(=O)[C@@]2(O)C(O)=C3C(=O)c4c(O)c5c(c(F)c4C[C@H]3C[C@@H]12)CN(C(=O)CN1CC[C@H](F)C1)C5` [Compound 147], in test [2], the responders at 3 mg/kg was 83% and the responders at 30 mg/kg came to 0%.
For `CCCN1Cc2c(O)c3c(c(Cl)c2C1)C[C@H]1C[C@H]2[C@H](N(C)C)C(O)=C(C(N)=O)C(=O)[C@@]2(O)C(O)=C1C3=O` [Compound 149], in test [2], the responders at 3 mg/kg came to 17% and the responders at 30 mg/kg was 0%.
Regarding `CCC(C)(C)N1Cc2c(O)c3c(c(Cl)c2C1)C[C@H]1C[C@H]2[C@H](N(C)C)C(O)=C(C(N)=O)C(=O)[C@@]2(O)C(O)=C1C3=O` [Compound 150], in test [2], the responders at 3 mg/kg was 0% and the responders at 30 mg/kg was 0%.
Turning to `CCCN1CCc2c(O)c3c(c(F)c2C1)C[C@H]1C[C@H]2[C@H](N(C)C)C(O)=C(C(N)=O)C(=O)[C@@]2(O)C(O)=C1C3=O` [Compound 304], in test [2], the responders at 3 mg/kg was determined as 0% and the responders at 30 mg/kg was determined as 17%.
`CC(C)CN1CC(=O)Nc2c(O)c3c(c(F)c2C1)C[C@H]1C[C@H]2[C@H](N(C)C)C(O)=C(C(N)=O)C(=O)[C@@]2(O)C(O)=C1C3=O` [Compound 400]: in test [2], the responders at 3 mg/kg is 100% and the responders at 30 mg/kg stood at 0%.
For `C[C@@H]1C(=O)Nc2c(O)c3c(c(F)c2CN1C)C[C@H]1C[C@H]2[C@H](N(C)C)C(O)=C(C(N)=O)C(=O)[C@@]2(O)C(O)=C1C3=O` [Compound 406], in that order: 100% and 40%.
For the compound `CC(C)C[C@@H]1CNc2c(O)c3c(c(F)c2CN1)C[C@H]1C[C@H]2[C@H](N(C)C)C(O)=C(C(N)=O)C(=O)[C@@]2(O)C(O)=C1C3=O` [Compound 408], in test [2], the responders at 3 mg/kg came out at 100% and the responders at 30 mg/kg is 0%.
The like results for `CN(C)[C@@H]1C(O)=C(C(N)=O)C(=O)[C@@]2(O)C(O)=C3C(=O)c4c(O)c5c(c(F)c4C[C@H]3C[C@@H]12)CN1CCCC[C@@H]1C(=O)N5` [Compound 410] were, in that order, 100% and 50%.
For `CN(C)[C@@H]1C(O)=C(C(N)=O)C(=O)[C@@]2(O)C(O)=C3C(=O)c4c(O)c5c(c(F)c4C[C@H]3C[C@@H]12)CN1CCC[C@H]1C(=O)N5` [Compound 412], in that order: 100% and 40%.
Regarding `CN1CC(=O)Nc2c(O)c3c(c(F)c2C1)C[C@H]1C[C@H]2[C@H](N(C)C)C(O)=C(C(N)=O)C(=O)[C@@]2(O)C(O)=C1C3=O` [Compound 416], in test [2], the responders at 3 mg/kg is 100% and the responders at 30 mg/kg came out at 20%.
For `CC(C)C[C@H]1NCc2c(F)c3c(c(O)c2NC1=O)C(=O)C1=C(O)[C@]2(O)C(=O)C(C(N)=O)=C(O)[C@@H](N(C)C)[C@@H]2C[C@@H]1C3` [Compound 419], in that order: 100% and 40%.
For `CC(C)C[C@@H]1C(=O)Nc2c(O)c3c(c(F)c2CN1C)C[C@H]1C[C@H]2[C@H](N(C)C)C(O)=C(C(N)=O)C(=O)[C@@]2(O)C(O)=C1C3=O` [Compound 428], in that order: 50% and 0%.
Turning to `CC[C@H]1OC(=O)[C@H](C)[C@@H](O[C@H]2C[C@@](C)(OC)[C@@H](O)[C@H](C)O2)[C@H](C)[C@@H](O[C@@H]2O[C@H](C)C[C@H](N(C)C)[C@H]2O)[C@](C)(O)C[C@@H](C)C(=O)[C@H](C)[C@@H](O)[C@]1(C)O` [Erythromycin], the MIC50 was 0.03 µg/mL (≈ 0.0409 µM) in test [3]; more than 4 µg/mL in test [3] (Staphylococcus aureus); 0.03 µg/mL (≈ 0.0409 µM) in test [3] (Streptococcus anginosus); 0.06 µg/mL (≈ 0.0818 µM) in test [3] (Streptococcus intermedius); more than 0.5 µg/mL in test [3] (Streptococcus mitis); 0.25 µg/mL (≈ 0.341 µM) in test [4]. For the same compound, the MIC90 in test [3] is more than 0.5 µg/mL; in test [3] (Staphylococcus aureus), more than 4 µg/mL; in test [3] (Streptococcus anginosus), more than 0.5 µg/mL; in test [3] (Streptococcus intermedius), more than 0.5 µg/mL; in test [3] (Streptococcus mitis), more than 0.5 µg/mL; in test [4], 0.5 µg/mL (≈ 0.681 µM).
In test [1], `C[C@@H](O)[C@H]1C(=O)N2C(C(=O)O)=C(SCCN=CN)C[C@H]12` [Imipenern] came in with an MIC50 of 1 µg/mL (≈ 3.34 µM) and an MIC90 of 1 µg/mL (≈ 3.34 µM).
